Assay [1] deals with mice fed with HFD. The experiment in a line: HFD-fed mice, 8 weeks, gavage: serum/liver lipids, body weight, food intake. The assay is classed as in vivo. The conditions noted are these: for HDL chol. / LDL chol. / TG / Tot. chol.: Table 2, mice. As to the method: In the 8 week experiment, C57BL/6J male mice (21-22 g), after fasting, were fed a HFD as a model of hyperlipidemia for 8 weeks. During the 2 month experiments, mice fasted for one night before the experiment was changed from a standard diet (STD) to a HFD and then the mice were randomly divided into 5 groups, including 2 control and 3 treatment groups. Six mice were used in each group. […] Liver from the protection group supplemented with KMUP-1 HCl (1 mg/kg/day) were used to determine the HMG CoA reductase expression.
Within 2 months, the 3 day food intake average for each animal was measured. The weight gain and plasma lipid levels of each group were determined and compared to the non-treatment control group. Mouse blood was collected during the daytime by cardiac puncture followed by centrifugation at 90 g (Benchtop Centrifuge, U.S.A.) to separate the serum, and frozen at −80° C., for biochemical analysis using a Hitachi Clinical Analyzer 7070 (Hitachi High-Technologies Co. Tokyo, Japan). Agents used in the assays were Obtained from Merck & Co. (Kenilworth, N.J., U.S.A.). Triglyceride (TG), total cholesterol, HDL cholesterol and LDL cholesterol in mouse serum were measured by methods used in the clinic. To measure the hepatic TG, isolated liver were cut into small chips.

Assay [2] has as its system ROCKII. The experiment in a line: Table 4 ROCKII (% of control). The class given is cell-based. Particulars: control group = 100 (%).
The test system of assay [3] is LDLRs. The experiment in a line: IHC staining of LDLRs in liver. The class given is in vivo, mice. Particulars: drinking KMUP-1 HCl; HFD; protection and treatment groups. As to the method:
Liver tissues were fixed in 10% buffered formalin for 24 hours and then embedded in paraffin. The paraffin-embedded liver tissue sections (4 μm thick) were first heat immobilised and deparaffinised using xylene and then rehydrated in a graded series of ethanol, followed by a final wash in distilled water. Finally, tissue sections were stained with PAS and Mayer's hematoxylin solution.
For IHC of hepatic LDLRs in the animals that drink the KMUP-1 HCl (2.5 mg/200 mL for 1-14 weeks or 8-14 weeks), antigen retrieval of de-paraffinated sections was performed in Dako target retrieval solution, pH 9.0, in a vegetable steamer followed by the quenching of endogenous peroxidase activity with 3.0% H2O2 in methanol. Sections were then incubated with specific primary antibodies overnight at 4° C. in a humidified chamber. The sections were then examined using a DAKO REAL EnVision™ Detection System kit (DAKO, Carpinteria, Calif., U.S.A.) and counterstained with hematoxylin. Images were obtained through a Nikon Eclipse TE200-S microscope.

Assay [4] deals with eNOS. Put plainly: Table 4 eNOS (% of control). The assay is classed as cell-based. Particulars: control group = 100 (%).
Assay [5] deals with PDE-5A. The experiment in a line: Table 4 PDE-5A (% of control). The assay is classed as cell-based. Particulars: control group = 100 (%).
The subject of assay [6] is mice fed a HFD. Put plainly: HFD-fed mice, 14-week experiment: body weight, liver morphology, H&E, oil globulets. The class given is in vivo. How it is done:
In the 14-week experiment, mice were fed a HFD from week 1 to week 14. During the 3 month experiments, KMUP-1 HCl (2.5 mg) was added to 200 ml tap water and) and drink for 14 weeks or for the last 6 weeks on mice or obese mice fed HFD, separately. 5 mice had free access to drinking water from week 1 to week 14 (protective group) or from week 8 to week 14 (treatment group). Tap water was used to normalize mineral nutrition (Scheme A).
The diameter of the white bar in the photograph was standardized at 100 μM for measuring the specific diameter of oil globulets in a whole liver slice, observed by microscope, with the aid of Powerpoint PC computer software (Microsoft®, USA) and printed out by a Hewlett-Packard® printer (USA). An increase in oil globulet diameter and cell number indicated increasing liver steatosis, i.e. steaotohepatitis. In contrast, decrease in diameter and the number of fat cells indicated the inhibition of steaotohepatitis. […] Hematoxylin-eosin (H&E) and […] staining of liver were used to assess oil globulet numbers under a microscope.
Mice liver and epididymal fat pads were cut and soaked in formalin, dehydrated through graded alcohols and embedded in paraffin. Specimens of liver tissues and epididymal fat pads fixed with formalin (4%) were embedded in paraffin for one hour at 4° C., cut into […] sections, and subjected to H&E staining before examination by light microscope. In heart tissues, the 4-μm-thick paraffin sections were cut from paraffin-embedded tissue blocks and de-paraffinized by immersion in xylene and rehydrated. The slices were then dyed with H&E. After gently rinsing with water, each slide was dehydrated through graded alcohols and finally soaked in xylene twice.
Hematoxylin-eosin (H&E) and IHC staining of liver were used to assess oil globulet numbers under a microscope. A 100 μM white bar was used to determine oil globule sizes in the liver. Oil globulets in a cell were counted from larger to smaller until size limitations were reached. Increases of oil globulet diameter and number indicated increasing liver steatosis. In contrast, a decrease in oil globulet diameters and numbers could indicate the inhibition of liver steatosis. Oil globulets were measured using a Nikon Eclipse TE200-S microscope, aided by Powerpoint computer software (Microsoft®) and printed by a HP® printer to measure the diameter and number of oil globulets on paper. Counting: of oil globules was performed from larger to smaller ones until the observation reached its limit.

Assay [7] has as its system HMG CoA reductase. The experiment in a line: HMG CoA reductase expression in liver of HFD mice (8 weeks). The class given is in vivo. Particulars: KMUP-1 HCl 2.5, 5 mg/kg, simvastatin 5 mg/kg. As to the method: In the 8 week experiment, C57BL/6J male mice (21-22 g), after fasting, were fed a HFD as a model of hyperlipidemia for 8 weeks. During the 2 month experiments, mice fasted for one night before the experiment was changed from a standard diet (STD) to a HFD and then the mice were randomly divided into 5 groups, including 2 control and 3 treatment groups. Six mice were used in each group. […]
The obtained protein extract was boiled to a ratio of 4:1 with a sample buffer (Tris 100 mM, pH 6.8, glycerol 20%, SDS 4% and bromophenol blue 0.2%). Electrophoresis was performed using 10% SDS-polyacrylamide gel (1 hour, 100 V, 40 mA, 20 μg protein per lane).
The blot was then incubated with anti-mouse or anti-goat IgG linked to alkaline phosphatase (1:1000) for 1 hour.

For `Cl.Cn1c(=O)c2c(ncn2CCN2CCN(c3ccccc3Cl)CC2)n(C)c1=O` [KMUP-1 HCl, 7-[2-[4-(2-chlorophenyl)piperazinyl]ethyl]-1,3-dimethylxanthine HCl complex], the body-weight gain entry in assay [1] (KMUP-1 HCl 2.5, 5 mg/kg p.o., simvastatin 5 mg/kg p.o., compared to control HFD group, p<0.05) was “reduced”. In assay [1] (dose 2.5 mg/kg), this compound showed an HDL chol. of 103.6 ± 4.2 mg/dL, an LDL chol. of 14.2 ± 1.4 mg/dL, a TG of 74.5 ± 5.1 mg/dL and a Tot. chol. of 133 ± 5.1 mg/dL. In assay [1] (dose 5 mg/kg), the HDL chol. came to 118.3 ± 5.7 mg/dL, the LDL chol. is 14.2 ± 2.2 mg/dL, the TG was 72.67 ± 4.7 mg/dL and the Tot. chol. worked out at 125.5 ± 9.8 mg/dL. For the same compound, in assay [2], the ROCKII is 42.5 ± 6.3%. The “hepatic LDLRs (IHC)” value in assay [3] was “increased”. The same compound returned an eNOS in assay [4] of 155.16 ± 14.8%. For the same compound, the PDE-5A in assay [5] came to 64.5 ± 4.5%. Besides, in assay [6] (drinking 2.5 mg/200 ml water, protection and treatment groups), the body weight result is “decreased”. The “fatty liver (gross morphology)” value in assay [6] (protective group, more prominent than in the treatment group) is listed as “markedly decreased”. The “HFD-induced downregulation of HMG-CoA reductase expression in liver” value in assay [7] is reported as “significantly reversed”.

For the origin of these results see patent US20150359798A1, “PIPERAZINYL DERIVATIVE REDUCES HIGH-FAT DIET-INDUCED ACCUMULATION OF FAT IN THE LIVERS, […]” (priority 2011, published 2015).
